From patent publication US10035804B2, “Spirodiamine derivatives as aldosterone synthase inhibitors” (Hoffmann-La Roche Inc., priority 2014, dated 2018)

Experiments:
[1] = biological target: human CYP11B2 (Homo sapiens (Human), UniProt P19099); experiment: G-402 cellular enzyme assay, human CYP11B2 (aldosterone release); assay type: cell-based; conditions: G-402 cells expressing human CYP11B2; 1 μM Deoxycorticosterone; aldosterone in supernatant after 16 h
From the text: (§1) Herein we identified the use of the G-402 cell line as a host cell to ectopically express (transiently or stably) enzymes of the CYP11 family. Specifically we developed stable G-402 cells expressing ectopically human CYP11B1, human CYP11B2, human CYP11A1, cynmolgus CYP11B1 or cynomolgus CYP11B2 enzyme activity. Importantly the identified cell line G-402 expresses co-factors (adrenodoxin and adrenodoxin reductase) important for the activity of the CYP11 family and no relevant enzyme activity of the CYP11 family (in comparison to H295R cells) was detected in these cells. Therefore the G-402 cell line is uniquely suited as a host cell for the ectopic expression of enzymes from the CYP11 family.
(§2) G-402 cells can be obtained from ATCC (CRL-1440) and were originally derived from a renal leiomyoblastoma.
(§3) The expression plasmids contains the ORF for either human/cyno CYP11B1 or CYP11B2 under the control of a suitable promoter (CMV-promoter) and a suitable resistance marker (neomycin). Using standard techniques the expression plasmid is transfected into G-402 cells and these cells are then selected for expressing the given resistance markers. Individual cell-clones are then selected and assessed for displaying the desired enzymatic activity using 11-Deoxycorticosterone (Cyp11B2) or 11-Deoxycortisol (Cyp11B1) as a substrate.
(§4) G-402 cells expressing CYP11 constructs were established as described above and maintained in McCoy's 5a Medium Modified, ATCC Catalog No. 30-2007 containing 10% FCS and 400 μg/ml G418 (Geneticin) at 37° C. under an atmosphere of 5% CO2/95% air. Cellular enzyme assays were performed in DMEM/F12 medium containing 2.5% charcoal treated FCS and appropriate concentration of substrate (0.3-10 uM 11-Deoxycorticosterone, 11-Deoxycortisol or Corticosterone). For assaying enzymatic activity, cells were plated onto 96 well plates and incubated for 16 h. An aliquot of the supernatant is then transferred and analyzed for the concentration of the expected product (Aldosterone for CYP11B2; Cortisol for CYP11B1). The concentrations of these steroids can be determined using HTRF assays from CisBio analyzing either Aldosterone or Cortisol.
(§5) Inhibition of the release of produced steroids can be used as a measure of the respective enzyme inhibition by test compounds added during the cellular enzyme assay. The dose dependent inhibition of enzymatic activity by a compound is calculated by means of plotting added inhibitor concentrations (x-axes) vs. measured steroid/product level (y-axes). The inhibition is then calculated by fitting the following 4-parameter sigmoidal function (Morgan-Mercer-Flodin (MMF) model) to the raw data points using the least squares method:
(§6) [formula] wherein, A is the maximum y value, B is the EC50 factor determined using XLFit, C is the minimum y value and D is the slope value.
(§7) EC50 values for compounds claimed herein were tested with the G402-based assay system described. Cyp11B2 enzyme activity was tested in presence of 1 μM Deoxycorticosterone and variable amounts of inhibitors; Cyp11B1 enzyme activity was tested in presence of 1 μM Deoxycortisol and variable amounts of inhibitors.

[2] = biological target: human CYP11B1 (Homo sapiens (Human), UniProt P15538); experiment: G-402 cellular enzyme assay, human CYP11B1 (cortisol release); assay type: cell-based; conditions: G-402 cells expressing human CYP11B1; 1 μM Deoxycortisol; cortisol in supernatant after 16 h
From the text: as §1, §2, §3, §4, §5, §6, §7

Sequence of human CYP11B2 (P19099 25-503): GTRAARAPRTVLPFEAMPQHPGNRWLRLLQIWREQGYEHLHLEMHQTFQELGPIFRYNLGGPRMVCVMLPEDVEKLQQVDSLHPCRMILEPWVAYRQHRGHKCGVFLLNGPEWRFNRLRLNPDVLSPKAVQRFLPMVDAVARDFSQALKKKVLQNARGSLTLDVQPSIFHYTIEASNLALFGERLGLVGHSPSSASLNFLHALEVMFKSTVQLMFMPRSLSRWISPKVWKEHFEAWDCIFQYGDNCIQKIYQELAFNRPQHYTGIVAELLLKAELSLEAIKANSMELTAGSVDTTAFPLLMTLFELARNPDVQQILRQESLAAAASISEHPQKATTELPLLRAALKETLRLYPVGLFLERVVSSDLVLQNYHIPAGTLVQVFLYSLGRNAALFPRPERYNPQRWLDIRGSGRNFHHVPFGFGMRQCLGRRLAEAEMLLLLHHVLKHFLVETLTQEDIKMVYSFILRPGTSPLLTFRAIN
Sequence of human CYP11B1 (P15538 25-503): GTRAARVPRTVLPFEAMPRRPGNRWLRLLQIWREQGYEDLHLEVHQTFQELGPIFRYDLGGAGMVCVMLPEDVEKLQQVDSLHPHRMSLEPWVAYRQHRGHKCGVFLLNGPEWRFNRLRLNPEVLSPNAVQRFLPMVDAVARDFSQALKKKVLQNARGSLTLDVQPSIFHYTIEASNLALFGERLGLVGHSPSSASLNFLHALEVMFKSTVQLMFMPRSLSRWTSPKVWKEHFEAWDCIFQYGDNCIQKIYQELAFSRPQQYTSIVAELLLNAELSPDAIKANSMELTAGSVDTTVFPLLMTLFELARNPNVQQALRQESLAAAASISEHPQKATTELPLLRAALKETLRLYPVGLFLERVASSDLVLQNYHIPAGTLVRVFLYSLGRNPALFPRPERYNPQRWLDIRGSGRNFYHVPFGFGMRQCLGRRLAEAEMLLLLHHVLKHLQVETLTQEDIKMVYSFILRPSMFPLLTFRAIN

| Structure (SMILES) | EC50 [1] [nM] | EC50 [2] [nM] |
| --- | --- | --- |
| Cn1ccnc1C(=O)N1CC2(C1)CN(c1cncc(N3C(=O)c4ccc(Cl)cc4C3(C)C)c1)C2 [Example 4, 5-Chloro-3,3-dimethyl-2-[5-[2-(1-methylimidazole-2-carbonyl)-2,6-diazaspiro[3.3]heptan-6-yl]-3-pyridyl]isoindolin-1-one] | 0.0099 | 1.1 |
| Cc1oncc1C(=O)N1CC2(C1)CN(c1cncc(N3C(=O)c4ccc(Cl)cc4C3(C)C)c1)C2 [Example 39, 5-Chloro-3,3-dimethyl-2-[5-[2-(5-methylisoxazole-4-carbonyl)-2,6-diazaspiro[3.3]heptan-6-yl]-3-pyridyl]isoindolin-1-one] | 0.0282 | 9.68 |
| Cc1ncc(C(=O)N2CC3(C2)CN(c2cncc(N4C(=O)c5ccc(Cl)cc5C4(C)C)c2)C3)o1 [Example 43, 5-Chloro-3,3-dimethyl-2-[5-[2-(2-methyloxazole-5-carbonyl)-2,6-diazaspiro[3.3]heptan-6-yl]-3-pyridyl]isoindolin-1-one] | 0.018 | 18 |
| COc1nccnc1C(=O)N1CC2(C1)CN(c1cncc(N3C(=O)c4ccc(Cl)cc4C3(C)C)c1)C2 [Example 37, 5-Chloro-2-[5-[2-(3-methoxypyrazine-2-carbonyl)-2,6-diazaspiro[3.3]heptan-6-yl]-3-pyridyl]-3,3-dimethyl-isoindolin-1-one] | 0.0754 | 16.1 |
| Cc1cnc(C(=O)N2CC3(C2)CN(c2cncc(N4C(=O)c5ccc(Cl)cc5C4(C)C)c2)C3)cn1 [Example 30, 5-Chloro-3,3-dimethyl-2-[5-[2-(5-methylpyrazine-2-carbonyl)-2,6-diazaspiro[3.3]heptan-6-yl]-3-pyridyl]isoindolin-1-one] | 0.0456 | 3.75 |
| CC(C)n1cc(C(=O)N2CC3(C2)CN(c2cncc(N4C(=O)c5ccc(Cl)cc5C4(C)C)c2)C3)cn1 [Example 3, 5-Chloro-2-[5-[2-(1-isopropylpyrazole-4-carbonyl)-2,6-diazaspiro[3.3]heptan-6-yl]-3-pyridyl]-3,3-dimethyl-isoindolin-1-one] | 0.0083 | 11.1 |
| Cc1ocnc1C(=O)N1CC2(C1)CN(c1cncc(N3C(=O)c4ccc(Cl)cc4C3(C)C)c1)C2 [Example 32, 5-Chloro-3,3-dimethyl-2-[5-[2-(5-methyloxazole-4-carbonyl)-2,6-diazaspiro[3.3]heptan-6-yl]-3-pyridyl]isoindolin-1-one] | 0.0149 | 5.37 |
| Cn1cncc1C(=O)N1CC2(C1)CN(c1cncc(N3C(=O)c4ccc(C#N)cc4C3(C)C)c1)C2 [Example 13, 3,3-Dimethyl-2-[5-[2-(3-methylimidazole-4-carbonyl)-2,6-diazaspiro[3.3]heptan-6-yl]-3-pyridyl]-1-oxo-isoindoline-5-carbonitrile] | 0.0278 | 26.4 |
| Cc1ncc(Cl)c(C(=O)N2CC3(C2)CN(c2cncc(N4C(=O)c5ccc(Cl)cc5C4(C)C)c2)C3)n1 [Example 47, 5-Chloro-2-[5-[2-(5-chloro-2-methyl-pyrimidine-4-carbonyl)-2,6-diazaspiro[3.3]heptan-6-yl]-3-pyridyl]-3,3-dimethyl-isoindolin-1-one] | 0.504 | 8.31 |
| Cc1ccncc1C(=O)N1CC2(C1)CN(c1cncc(N3C(=O)c4ccc(Cl)cc4C34CC4)c1)C2 [Example 20, 5′-Chloro-2′-[5-[2-(4-methylpyridine-3-carbonyl)-2,6-diazaspiro[3.3]heptan-6-yl]-3-pyridyl]spiro[cyclopropane-1,3′-isoindoline]-1′-one] | 0.0195 | 20 |
| CC1(C)c2cc(Cl)ccc2C(=O)N1c1cncc(N2CC3(CN(C(=O)c4cnccc4C#N)C3)C2)c1 [Example 50, 3-[6-[5-(6-Chloro-1,1-dimethyl-3-oxo-isoindolin-2-yl)-3-pyridyl]-2,6-diazaspiro[3.3]heptane-2-carbonyl]pyridine-4-carbonitrile] | 0.0248 | 16.8 |
| Cn1cncc1C(=O)N1CC2(C1)CN(c1cncc(N3C(=O)c4ccc(Cl)cc4C3(C)C)c1)C2 [Example 6, 5-Chloro-3,3-dimethyl-2-[5-[2-(3-methylimidazole-4-carbonyl)-2,6-diazaspiro[3.3]heptan-6-yl]-3-pyridyl]isoindolin-1-one] | 0.0117 | 7.94 |
| CC(C)n1cc(C(=O)N2CC3(C2)CN(c2cncc(N4C(=O)c5ccc(C#N)cc5C4(C)C)c2)C3)cn1 [Example 10, 2-[5-[2-(1-Isopropylpyrazole-4-carbonyl)-2,6-diazaspiro[3.3]heptan-6-yl]-3-pyridyl]-3,3-dimethyl-1-oxo-isoindoline-5-carbonitrile] | 0.0155 | 25.6 |
| COc1ccc2c(n1)C(C)(C)N(c1cncc(N3CC4(CN(C(=O)c5cnccc5C)C4)C3)c1)C2=O [Example 16, 2-Methoxy-7,7-dimethyl-6-[5-[2-(4-methylpyridine-3-carbonyl)-2,6-diazaspiro[3.3]heptan-6-yl]-3-pyridyl]pyrrolo[3,4-b]pyridin-5-one] | 0.0827 | 29.3 |
| Cn1cc(C(=O)N2CC3(C2)CN(c2cncc(N4C(=O)c5ccc(C#N)cc5C4(C)C)c2)C3)cn1 [Example 8, 3,3-Dimethyl-2-[5-[2-(1-methylpyrazole-4-carbonyl)-2,6-diazaspiro[3.3]heptan-6-yl]-3-pyridyl]-1-oxo-isoindoline-5-carbonitrile] | 0.112 | > 30 |
| Cn1ccnc1C(=O)N1CC2(C1)CN(c1cncc(N3C(=O)c4ccc(C#N)cc4C3(C)C)c1)C2 [Example 11, 3,3-Dimethyl-2-[5-[2-(1-methylimidazole-2-carbonyl)-2,6-diazaspiro[3.3]heptan-6-yl]-3-pyridyl]-1-oxo-isoindoline-5-carbonitrile] | 0.0252 | 4.76 |
| CC1(C)c2cc(Cl)ccc2C(=O)N1c1cncc(N2CC3(CN(C(=O)c4cnccn4)C3)C2)c1 [Example 38, 5-Chloro-3,3-dimethyl-2-[5-[2-(pyrazine-2-carbonyl)-2,6-diazaspiro[3.3]heptan-6-yl]-3-pyridyl]isoindolin-1-one] | 0.0268 | 2.32 |
| Cc1nc(C)c(C(=O)N2CC3(C2)CN(c2cncc(N4C(=O)c5ccc(Cl)cc5C4(C)C)c2)C3)o1 [Example 44, 5-Chloro-2-[5-[2-(2,4-dimethyloxazole-5-carbonyl)-2,6-diazaspiro[3.3]heptan-6-yl]-3-pyridyl]-3,3-dimethyl-isoindolin-1-one] | 0.0907 | 18 |
| Cc1ccncc1C(=O)N1CCC2(CC1)CN(c1cncc(N3C(=O)c4ccc(Cl)cc4C3(C)C)c1)C2 [Example 57, 5-Chloro-3,3-dimethyl-2-[5-[7-(4-methylpyridine-3-carbonyl)-2,7-diazaspiro[3.5]nonan-2-yl]-3-pyridyl]isoindolin-1-one] | 0.049 | 9.72 |
| Cc1cncc(C(=O)N2CC3(C2)CN(c2cncc(N4C(=O)c5ccc(Cl)cc5C4(C)C)c2)C3)n1 [Example 28, 5-Chloro-3,3-dimethyl-2-[5-[2-(6-methylpyrazine-2-carbonyl)-2,6-diazaspiro[3.3]heptan-6-yl]-3-pyridyl]isoindolin-1-one] | 0.0577 | 0.64 |
| CC1c2cc(Cl)ccc2C(=O)N1c1cncc(N2CC3(CN(C(=O)c4cnn(C)c4)C3)C2)c1 (centres unmarked) [Example 18, 5-Chloro-3-methyl-2-[5-[2-(1-methylpyrazole-4-carbonyl)-2,6-diazaspiro[3.3]heptan-6-yl]-3-pyridyl]isoindolin-1-one] | 0.0078 | 16.7 |
| Cn1nccc1C(=O)N1CC2(C1)CN(c1cncc(N3C(=O)c4ccc(C#N)cc4C3(C)C)c1)C2 [Example 12, 3,3-Dimethyl-2-[5-[2-(2-methylpyrazole-3-carbonyl)-2,6-diazaspiro[3.3]heptan-6-yl]-3-pyridyl]-1-oxo-isoindoline-5-carbonitrile] | 0.191 | > 30 |
